US20260199284A1, “SPECIFIC VASH COMPOUNDS (SVC) INHIBITORS FOR HEART DISEASES” (MT ACT, priority 2023, published 2026)
Entries after “also recorded” stand apart in the source; their conditions may differ.

Tests used:
Sprague Dawley rats = assay: Myocardial tubulin detyrosination after IV injection, western blot; format: in vivo, rat; conditions: single injection IV, 8 weeks old Sprague Dawley rats
Description: B) Quantification of detyrosination levels (D1/alpha-tubulin ratio) in vehicle (n=4) and VASHi-treated rats (n=3).
For efficacy testing we presented SVC_01 to primary cardiomyocytes isolated from Sprague Dawley rats. […] Next, we performed functional studies by measuring key cardiomyocytes parameters including resting, fractional shortening, contraction time and relaxation time. […] The ZSF1 rat model is a hybrid rat obtained by a cross between a ZDF female and an SHHF male rat. This model is an established HFpEF rat model. Obese ZSF1 (O—ZSF1) hybrid rats are compound heterozygote with two different mutated alleles coding defective leptin receptor, resulting in loss of the receptor function. Thus, these animals have increased food intake and develop pronounced features of obesity, diabetes, and resultant HFpEF. […] We performed a western blot analysis from myocardial tissue prepared from Wistar Kyoto (WKY), ZSF1 lean and ZSF1 obese rats (FIG. 14). In line with previously published data of the role of microtubule densification and tubulin detyrosination, we found an increase in both total tubulin as well as detyrosinated tubulin in myocardial tissue of ZSF1-obese rats compared to the lean and WKY controls. […] Similar results were observed by assessment of the transverse stiffness. […]

[1] = test system: primary cardiomyocytes isolated from Sprague Dawley rats; assay: Western blot of detyrosinated tubulin in primary cardiomyocytes; format: cell-based, rat
Procedure: A) Representative western blot and B) quantification of detyrosinated and alpha-tubulin levels after 2 hrs 37° C. incubation of freshly isolated adult rat cardiomyocytes with compound SVC_01 at indicated concentrations. N=4 Sprague Dawley rats.
Primary adult ventricular cardiac myocytes were isolated from 6 to 8 weeks old Sprague Dawley rats or 20 to 30 weeks old WKY, ZSF1 lean and obese rats. Briefly, the heart was removed from a rat anesthetized under isoflurane and retrograde-perfused on a Langendorff apparatus with a collagenase solution. The digested heart was then minced and triturated using a glass pipette. The resulting supernatant was separated and centrifuged at 300 revolution per minute (rpm) to isolate cardiomyocytes which were then resuspended in rat cardiomyocyte media at low density. Cardiomyocytes were cultured at 37° C. and 5% CO2 with 25 μmol/L of cytochalasin D. Rat cardiomyocyte media: medium 199 (Thermo Fisher 115090) supplemented with 1× Insulin-transferrin-selenium-X (Gibco 51500056), 1 μg μl^−1 primocin (Invivogen ant-pm-1), 20 mmol/L HEPES at pH 7.4 and 25 μmol/L cytochalasin D.
For whole cell protein extraction, isolated rat cardiomyocytes were lysed in RIPA buffer (Cayman #10010263) supplemented with protease and phosphatase Inhibitor cocktail (Cell Signaling #5872S) on ice for 1 hour. […] All samples were run in duplicates and analyzed in reference to GAPDH.

[2] = test system: primary cardiomyocytes isolated from ZSF1-Lean or ZSF1 Obese rats; assay: Nanoindentation transverse stiffness; format: cell-based, rat
Description: FIG. 17: Reduced transverse stiffness upon VASH inhibition or TTL overexpression in primary cardiomyocytes isolated from ZSF1-Lean or ZSF1 Obese rats. A) Stiffness (elastic modulus) plotted as a function of nanoindentation velocity in ZSF1-Lean and B) ZSF1-Obese myocytes. C) Quantification of Emin (elastic stiffness), Emax (stiffness at maximal velocity of indentation) and D) DeltaE (indicator of viscoelasticity) in ZSF1-Lean and Obese cardiomyocytes.
Mechanical properties at the microscopic scale were measured using nano-indentation (Piuma; Optics11, Amsterdam, The Netherlands) equipped with a dynamic mechanical analysis package (DMA). Freshly isolated cardiomyocytes were attached to glass-bottom dishes coated with MyoTak (IonOptix) in NT solution at 1 mM Ca2+. A spherical indentation probe with a radius of 4.5 μm and a stiffness of 0.1 N/m was used to indent the myocytes to a depth of 1-2 μm and the probe was then oscillated in a sinusoidal pattern at a frequency of 0.05, 0.1, 0.5, 1, 2, 5, 10, 20 and 50 Hz and an amplitude of 1 μm. The Piuma Data Viewer version 2.0 was used to convert DMA indentation depth and cantilever deflection into E′ and E″ and the magnitude of the elastic modulus was determined by E^2=E′^2+E″^2 A Poisson's ratio (n) of 0.5 was assumed and the average of E in each experimental condition was determined as a function of indentation speed. […]

[3] = test system: human adult cardiomyocytes; assay: Western blot of tubulin detyrosination and acetylation in human adult cardiomyocytes; format: cell-based
Procedure: FIG. 33: human adult cardiomyocytes are treated with vehicle or SVC-01 (inhibitor). Protein lysates are analysed by western blot to evaluate the level of tubulin detyrosination and acetylation.
Specificity of SVC-01 was assayed using both human VASH1 and VASH2 recombinant enzymes. […] Finally, to ensure that regulation of other genes involved in the detyrosination-tyrosination cycle is not affected, we analysed gene expression of all relevant and associated genes following treatment with SVC-02 in adult human cardiomyocytes. We found no alteration of VASH1, VASH2, MATCAP, TTL or SVBP gene expression between vehicle control and SVC-02 treated cells (FIG. 34).

Row | SMILES | detyrosinated tubulin in myocardial tissue (Sprague Dawley rats) | reduction of tubulin detyrosination ([1]; 2 hours incubation, Sprague Dawley rat cardiomyocytes) [%] | reduction in detyrosination ([1]; 2 hrs 37° C., indicated concentrations) | transverse viscoelastic stiffness [2] | level of tubulin acetylation [3] | level of tubulin detyrosination [3]
1 | CCOC(=O)[C@H](Cc1ccc(OCC)cc1)NC(=O)[C@H]1O[C@@H]1C(=O)N[C@@H](Cc1ccc(OCC)cc1)C(=O)OCC [SVC_02] | efficient reduction in detyrosinated tubulin | – | – | – | – | –
2 | O=C(O)CCC[C@H](NC(=O)[C@H]1O[C@@H]1C(=O)C[C@@H](Cc1ccc(OCc2ccccc2)cc1)C(=O)O)C(=O)NCCc1ccccc1 [SVC_01] | – | ~80 | Dose-dependent reduction in detyrosination | viscoelastic stiffness is reduced | did not affect the level of tubulin acetylation; also recorded: remained unchanged | significantly reduces the level of tubulin detyrosination; also recorded: significant reduction of tubulin detyrosination
